Experimental data reported in US10314841B2, “Substituted pyrazoles as IRAK inhibitors” (Merck Patent GmbH, priority 2014, dated 2019).

Legend:
[1] = molecular target: T1, IRAK1 (His-TEV-IRAK1 (194-712)) (Homo sapiens, UniProt P51617); assay: IRAK1 enzymatic assay; format: biochemical; details: human recombinant His-TEV-IRAK1, ATP 1 μM, 3 hours at 30° C., FlashPlate
T1 construct: His-TEV-IRAK1 (194-712); His (N); TEV cleavage site (N)
Experimental: IRAK1 Enzymatic Assay IRAK1 is a human purified recombinant enzyme (His-TEV-IRAK1 (194-712)). In this assay, IRAK-1 hydrolyses ATP and autophosphorylates. Measurement of IRAK-1 inhibition was performed in streptavidin coated 384 well FlashPlate (PerkinElmer #SM[…]). His-TEV-IRAK-1 (15 ng/well), ATP (1 μ[…]]ATP 0.25 μCi/well) and compounds in DMSO (range of concentrations from 20 μM to 1 nM) or controls (2% DMSO) were incubated for 3 hours at 30° C. in assay buffer: Hepes pH7.0 50 mM, Fatty acid-free BSA 0.1%, Dithiothreitol DTT 2 mM, MgCl2 10 mM, EGTA 0.5 mM, Triton-X-100 0.01%. Kinase reaction was stopped by addition of EDTA. Supernatant was discarded, plates were washed three times with 150 mM NaCl and radioactivity was then measured in a Microbeta Trilux reader.

IRAK4 (His-TEV-IRAK4) = molecular target: T2, IRAK4 (His-TEV-IRAK4) (Homo sapiens, UniProt Q9NWZ3); assay: IRAK4 enzymatic assay; format: biochemical; details: human recombinant His-TEV-IRAK4, ATP 2 μM, STK1-biotin peptide 300 nM, 3 hours at 30° C., FlashPlate
T2 construct: His (N); TEV cleavage site (N)
T2 sequence (Q9NWZ3 1-460): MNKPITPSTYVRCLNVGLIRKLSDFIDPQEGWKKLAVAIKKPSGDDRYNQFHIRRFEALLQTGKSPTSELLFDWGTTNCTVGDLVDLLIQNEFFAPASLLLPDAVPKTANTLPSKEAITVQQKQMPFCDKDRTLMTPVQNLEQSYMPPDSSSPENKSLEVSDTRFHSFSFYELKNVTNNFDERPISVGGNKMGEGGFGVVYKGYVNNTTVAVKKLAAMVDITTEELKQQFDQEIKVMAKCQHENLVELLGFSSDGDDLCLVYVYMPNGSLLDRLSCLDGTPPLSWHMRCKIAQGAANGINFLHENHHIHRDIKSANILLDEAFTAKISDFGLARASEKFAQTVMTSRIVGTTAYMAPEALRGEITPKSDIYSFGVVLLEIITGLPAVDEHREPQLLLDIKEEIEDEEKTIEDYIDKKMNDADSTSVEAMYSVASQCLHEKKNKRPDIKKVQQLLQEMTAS
Experimental: IRAK4 Enzymatic Assay IRAK4 is a human purified recombinant enzyme (His-TEV-[…] (194-712). IRAK4 hydrolyses ATP, autophosphorylates and phosphorylates a Serine/Threonine generic peptidic substrate (STK: 61 ST1BLC from CisBio International based in Bagnols/Cèze FR). Measurement of IRAK-4 inhibition was performed in streptavidin coated 384 well FlashPlate (PerkinElmer #SM[…]). His-TEV-IRAK4 (20 ng/well), ATP (2 μM, [^33P]ATP 0.25 μCi/well), STK1-biotin peptide (300 nM) and compounds in DMSO (range of concentrations from 20 μM to 1 nM) or controls (2% DMSO) were incubated for 3 hours at 30° C. in assay buffer: Hepes pH7.0 50 mM, Fatty acid-free BSA 0.1%, Dithiothreitol DTT 2 mM, MgCl2 10 mM, EGTA 0.5 mM, Tween-20 0.01%, MnCl2 5 mM. Kinase reaction was stopped by addition of EDTA. Supernatant was discarded, plates were washed three times with 150 mM NaCl and radioactivity was then measured in a Microbeta Trilux reader.

[2] = test system: TLR7 induced IL-6 secretion in human PBMC's; assay: TLR7 induced IL-6 in human PBMC's; format: cell-based; details: human PBMC, TLR7 specific ligand 2 uM overnight, IL-6 Alpha LISA; read-out: TLR7 induced IL-6 secretion in hPBMC's (IC50)
Experimental: TLR7 Induced IL-6 in Human PBMC's Human PBMC assay was used as one of the functional assays to monitor the activity of IRAK1 and IRAK4 small molecule inhibitors on TLR7 induced IL-6 secretion in human mononuclear cells (PBMC's). Human PBMCs were prepared from buffy coats (whole blood enriched with leukocytes and platelets) obtained from healthy volunteers used either fresh or frozen are plated in assay media (RPMI+2% P/S/L-glu+10% HI-FBS) and pre-treated with compounds in DMSO/media (range of concentrations from 25 uM to 0.4 nM) or controls (0.25% DMSO) for 30 minutes at 37° C. in assay media. Following pre-treatment with IRAK1 and IRAK4 inhibitors, PBMC's were stimulated with TLR7 specific ligand (2 uM) overnight (16-18 hrs) at 37° C. After incubation supernatant was transferred to 384 well PE AlphaPlate-384 (6005350) and IL-6 is quantified using Perkin Elmer IL-6 Alpha LISA kit (A[…]). Plates were read on an Envision® plate reader with Alpha Technology®.

T1 sequence (P51617 194-712): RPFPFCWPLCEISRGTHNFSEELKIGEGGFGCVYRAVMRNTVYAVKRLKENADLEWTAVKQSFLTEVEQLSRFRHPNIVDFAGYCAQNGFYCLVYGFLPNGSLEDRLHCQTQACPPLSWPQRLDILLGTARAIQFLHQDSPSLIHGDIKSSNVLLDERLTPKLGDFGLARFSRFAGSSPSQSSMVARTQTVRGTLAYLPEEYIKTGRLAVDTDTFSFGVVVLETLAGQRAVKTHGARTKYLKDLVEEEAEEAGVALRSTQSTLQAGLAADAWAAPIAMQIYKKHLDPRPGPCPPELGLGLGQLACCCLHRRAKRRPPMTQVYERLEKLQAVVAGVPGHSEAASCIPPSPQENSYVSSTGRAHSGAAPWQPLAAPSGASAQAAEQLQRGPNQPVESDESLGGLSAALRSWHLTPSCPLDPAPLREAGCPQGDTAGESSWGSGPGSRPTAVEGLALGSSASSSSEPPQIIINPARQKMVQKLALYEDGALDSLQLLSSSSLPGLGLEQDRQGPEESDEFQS

In the case of Cn1cc(-c2cccc(-c3ncc(-c4cnn(C5CCC[C@@H](S(C)(=N)=O)C5)c4)cn3)c2)cn1 (stereo partly drawn) [Compound 34, imino(methyl)(Cis-3-(4-(2-(3-(1-methyl-1H-pyrazol-4-yl)phenyl)pyrimidin-5-yl)-1H-pyrazol-1-yl)cyclohexyl)-I6-sulfanone], the IC50 [1] is reported as 100 to 1000 nM, the IC50 (IRAK4 (His-TEV-IRAK4)) is reported as < 100 nM and the IC50 [2] is reported as 1000 to 20000 nM.

With CC#CC(=O)N1CCC(n2cc(-c3cnc(-c4cccc(-c5cnn(C)c5)c4)nc3)cn2)CC1 [Compound 48, 1-[4-(4-{2-[3-(1-Methyl-1H-pyrazol-4-yl)-phenyl]-pyrimidin-5-yl}-pyrazol-1-yl)-piperidin-1-yl]-but-2-yn-1-one] the IC50 [1] was < 100 nM, the IC50 (IRAK4 (His-TEV-IRAK4)) was < 100 nM and the IC50 [2] was 1000 to 20000 nM.

In the case of Cn1cc(-c2cccc(-c3ncc(-c4cnn([C@H]5CCC[C@@H](N6CCOCC6)C5)c4)cn3)c2)cn1 (relative stereo) [Compound 4, 4-[Cis-3-(4-{2-[3-(1-Methyl-1H-pyrazol-4-yl)-phenyl]-pyrimidin-5-yl}-pyrazol-1-yl)-cyclohexyl]-morpholine], the IC50 [1] is reported as 100 to 1000 nM, the IC50 (IRAK4 (His-TEV-IRAK4)) is reported as < 100 nM and the IC50 [2] is reported as 100 to 1000 nM.

In the case of Cn1cc(-c2cccc(-c3ncc(-c4cnn(C5CCN(C#N)CC5)c4)cn3)c2)cn1 [Compound 45, 4-(4-{2-[3-(1-Methyl-1H-pyrazol-4-yl)-phenyl]-pyrimidin-5-yl}-pyrazol-1-yl)-piperidine-1-carbonitrile], the IC50 [1] is reported as 100 to 1000 nM, the IC50 (IRAK4 (His-TEV-IRAK4)) is reported as < 100 nM and the IC50 [2] is reported as 100 to 1000 nM.

For C=CC(=O)N1CCCC(n2cc(-c3cnc(-c4cccc(-c5cnn(C)c5)c4)nc3)cn2)C1 (centres unmarked) [Compound 14, 1-[3-(4-{2-[3-(1-Methyl-1H-pyrazol-4-yl)-phenyl]-pyrimidin-5-yl}-pyrazol-1-yl)-piperidin-1-yl]-propenone], the IC50 [1] was 100 to 1000 nM, the IC50 (IRAK4 (His-TEV-IRAK4)) was < 100 nM and the IC50 [2] was 100 to 1000 nM.

With C=CS(=O)(=O)N1CCC(n2cc(-c3cnc(-c4cccc(-c5cnn(C)c5)c4)nc3)cn2)CC1 [Compound 18, 5-[1-(1-Ethenesulfonyl-piperidin-4-yl)-1H-pyrazol-4-yl]-2-[3-(1-methyl-1H-pyrazol-4-yl)-phenyl]-pyrimidine] the IC50 [1] was < 100 nM, the IC50 (IRAK4 (His-TEV-IRAK4)) was < 100 nM and the IC50 [2] was < 100 nM.

For C=CS(=O)(=O)N[C@H]1CCC[C@H](n2cc(-c3cnc(-c4cccc(-c5cnn(C)c5)c4)nc3)cn2)C1 (relative stereo) [Compound 37, Ethenesulfonic acid [Trans-3-(4-{2-[3-(1-methyl-1H-pyrazol-4-yl)-phenyl]-pyrimidin-5-yl}-pyrazol-1-yl)-cyclohexyl]-amide], the IC50 [1] was < 100 nM, the IC50 (IRAK4 (His-TEV-IRAK4)) was < 100 nM and the IC50 [2] was 100 to 1000 nM.

Cn1nccc1-c1cccc(-c2ncc(-c3cnn([C@H]4CC[C@]5(CCC(=O)N5C)CC4)c3)cn2)c1 [Compound 43, 1-Methyl-8-((S)-4-{2-[3-(2-methyl-2H-pyrazol-3-yl)-phenyl]-pyrimidin-5-yl}-pyrazol-1-yl)-1-aza-spiro[4.5]decan-2-one] was tested, and the IC50 [1] was 1000 to 20000 nM, the IC50 (IRAK4 (His-TEV-IRAK4)) was < 100 nM and the IC50 [2] was 1000 to 20000 nM.

In the case of Cn1cc(-c2cccc(-c3ncc(-c4cnn([C@H]5CCC[C@H](N6CCOCC6=O)C5)c4)cn3)c2)cn1 (relative stereo) [Compound 3, 4-[Trans-3-(4-{2-[3-(1-Methyl-1H-pyrazol-4-yl)-phenyl]-pyrimidin-5-yl}-pyrazol-1-yl)-cyclohexyl]-morpholin-3-one], the IC50 [1] is reported as 100 to 1000 nM, the IC50 (IRAK4 (His-TEV-IRAK4)) is reported as < 100 nM and the IC50 [2] is reported as 100 to 1000 nM.

For C=CC(=O)N1CCC(n2cc(-c3cnc(-c4cccc(-c5cnn(C)c5)c4)nc3)cn2)CC1 [Compound 10, 1-[4-(4-{2-[3-(1-Methyl-1H-pyrazol-4-yl)-phenyl]-pyrimidin-5-yl}-pyrazol-1-yl)-piperidin-1-yl]-propenone], the IC50 [1] was 100 to 1000 nM, the IC50 (IRAK4 (His-TEV-IRAK4)) was < 100 nM and the IC50 [2] was 100 to 1000 nM.

For Cn1cc(-c2cccc(-c3ncc(-c4cnn(C5CCCC(N6CCC(F)(F)CC6)C5)c4)cn3)c2)cn1 (centres unmarked) [Compound 11, 5-{1-[3-(4,4-Difluoro-piperidin-1-yl)-cyclohexyl]-1H-pyrazol-4-yl}-2-[3-(1-methyl-1H-pyrazol-4-yl)-phenyl]-pyrimidine], the IC50 [1] was 100 to 1000 nM, the IC50 (IRAK4 (His-TEV-IRAK4)) was < 100 nM and the IC50 [2] was 100 to 1000 nM.

For Cn1cc(-c2cccc(-c3ncc(-c4cnn([C@H]5CCC[C@H](NCCO)C5)c4)cn3)c2)cn1 (relative stereo) [Compound 2, 2-[Trans-3-(4-{2-[3-(1-Methyl-1H-pyrazol-4-yl)-phenyl]-pyrimidin-5-yl}-pyrazol-1-yl)-cyclohexylamino]-ethanol], the IC50 [1] was 100 to 1000 nM, the IC50 (IRAK4 (His-TEV-IRAK4)) was < 100 nM and the IC50 [2] was 1000 to 20000 nM.

With C=CC(=O)NC1CCCC(n2cc(-c3cnc(-c4cccc(-c5cnn(C)c5)c4)nc3)cn2)C1 (centres unmarked) [Compound 15, N-[3-(4-{2-[3-(1-Methyl-1H-pyrazol-4-yl)-phenyl]-pyrimidin-5-yl}-pyrazol-1-yl)-cyclohexyl]-acrylamide] the IC50 [1] was < 100 nM, the IC50 (IRAK4 (His-TEV-IRAK4)) was < 100 nM and the IC50 [2] was < 100 nM.

For C=CC(=O)N[C@@H]1CCC[C@H](n2cc(-c3cnc(-c4cccc(-c5cnn(C)c5)c4)nc3)cn2)C1 (relative stereo) [Compound 36], the IC50 [1] was < 100 nM, the IC50 (IRAK4 (His-TEV-IRAK4)) was < 100 nM and the IC50 [2] was 100 to 1000 nM.

With Cn1cc(-c2cccc(-c3ncc(-c4cnn([C@@H]5CCC[C@@H](NS(C)(=O)=O)C5)c4)cn3)c2)cn1 (single isomer, unassigned) [Compound 27] the IC50 [1] was 100 to 1000 nM, the IC50 (IRAK4 (His-TEV-IRAK4)) was < 100 nM and the IC50 [2] was 100 to 1000 nM.

For Cn1cc(-c2cccc(-c3ncc(-c4cnn(C5CCNCC5CO)c4)cn3)c2)cn1 (mixture of isomers) [Compound 26, [4-(4-{2-[3-(1-Methyl-1H-pyrazol-4-yl)-phenyl]-pyrimidin-5-yl}-pyrazol-1-yl)-piperidin-3-yl]-methanol], the IC50 [1] was 100 to 1000 nM, the IC50 (IRAK4 (His-TEV-IRAK4)) was 100 to 1000 nM and the IC50 [2] was 1000 to 20000 nM.

With Cn1cc(-c2cccc(-c3ncc(-c4cnn(C5CCN(C(=O)/C(C#N)=C\C6CC6)CC5)c4)cn3)c2)cn1 [Compound 46, (Z)-3-Cyclopropyl-2-[4-(4-{2-[3-(1-methyl-1H-pyrazol-4-yl)-phenyl]-pyrimidin-5-yl}-pyrazol-1-yl)-piperidine-1-carbonyl]-acrylonitrile] the IC50 [1] was < 100 nM, the IC50 (IRAK4 (His-TEV-IRAK4)) was < 100 nM and the IC50 [2] was 100 to 1000 nM.

For Cn1cc(-c2cccc(-c3ncc(-c4cnn([C@H]5CCC[C@H](S(C)(=N)=O)C5)c4)cn3)c2)cn1 (relative stereo) [Compound 35], the IC50 [1] was 100 to 1000 nM, the IC50 (IRAK4 (His-TEV-IRAK4)) was < 100 nM and the IC50 [2] was 1000 to 20000 nM.

Work on C=CS(=O)(=O)NCCn1cc(-c2cnc(-c3cccc(-c4cnn(C)c4)c3)nc2)cn1 [Compound 16, Ethenesulfonic acid [2-(4-{2-[3-(1-methyl-1H-pyrazol-4-yl)-phenyl]-pyrimidin-5-yl}-pyrazol-1-yl)-ethyl]-amide] yielded an IC50 [1] of 100 to 1000 nM and an IC50 (IRAK4 (His-TEV-IRAK4)) of 100 to 1000 nM.
